Results published in ChEMBL document CHEMBL1201862, “PubChem BioAssay data set” (2004).
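1) Cells in 96-well plates. 2) Compound, 48 h, 5 concentrations. 3) Linear interpolation between surrounding doses. 4) Unreached endpoint = highest concentration. GI50 = concentration required for 50% inhibition of growth.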 Activity calls are given as the source filed them. Rule as the data show it: active = GI50 up to about 1.1 µM and inactive = higher.

Legend:
Test in all cases: NCI anticancer screen, dose series, 48 h
[1] = system: OVCAR-8
[2] = system: SF-268
[3] = system: NCI/ADR-RES
[4] = system: OVCAR-3
[5] = system: IGROV-1
[6] = system: NCI-H226
[7] = system: SW-620
[8] = system: OVCAR-5
[9] = system: NCI-H522
[10] = system: OVCAR-4
[11] = system: A498
[12] = system: HOP-92
[13] = system: MCF7
[14] = system: SK-OV-3
[15] = system: 786-0
[16] = system: ACHN
[17] = system: SK-MEL-5
[18] = system: HT-29
[19] = system: K562
[20] = system: Hs-578T

Measured: GI50

Clc1cc(-c2ccccc2)nc2ccccc12
inactive: [1] 59.7 µM | [2] 44.9 µM | [3] 33.6 µM | [4] 49.9 µM | [5] 15.1 µM | [6] 28.4 µM | [7] 43.6 µM | [8] > 100 µM | [9] 17 µM | [10] 20.7 µM | [11] 33 µM | [12] 36.8 µM | [13] 23.7 µM | [14] > 100 µM | [15] 39.5 µM | [16] 38.5 µM | [17] 18.1 µM | [18] 32.1 µM | [19] 37.8 µM | [20] 30.1 µM

CCN(CC)CCn1ncc2c(N)ncnc21
inactive: [1] > 100 µM | [2] > 100 µM | [3] > 100 µM | [4] > 100 µM | [5] > 100 µM | [6] > 100 µM | [7] > 100 µM | [8] > 100 µM | [9] > 100 µM | [10] > 100 µM | [11] > 100 µM | [12] > 100 µM | [13] > 100 µM | [14] > 100 µM | [15] > 100 µM | [16] > 100 µM | [17] > 100 µM | [18] > 100 µM | [19] > 100 µM | [20] > 100 µM

CC(CCCC1SCC2NC(=O)NC21)C(=O)O (centres undefined)
inactive: [1] > 100 µM | [2] > 100 µM | [3] > 100 µM | [4] > 100 µM | [5] > 100 µM | [6] > 100 µM | [7] > 100 µM | [8] > 100 µM | [9] > 100 µM | [10] > 100 µM | [11] > 100 µM | [12] > 100 µM | [13] > 100 µM | [14] > 100 µM | [15] > 100 µM | [16] > 100 µM | [17] > 100 µM | [18] > 100 µM | [19] > 100 µM | [20] > 100 µM

O=[N+]([O-])c1ccc(N/N=C/c2ccc(OCCCCCCCCCCCO)cc2)c([N+](=O)[O-])c1
inactive: [1] 2.71 µM | [2] 2.84 µM | [3] 2.73 µM | [4] 30.3 µM | [5] 6.05 µM | [6] 6.37 µM | [7] 4.84 µM | [8] 14.8 µM | [9] 2.35 µM | [10] 4.13 µM | [11] 36 µM | [12] 4.82 µM | [13] 6.05 µM | [14] 4.24 µM | [15] 1.91 µM | [16] 9.2 µM | [17] 1.77 µM | [18] 1.48 µM | [19] 1.15 µM | [20] 1.32 µM

NS(=O)(=O)c1nnc(NS(=O)(=O)c2ccccc2C(=O)O)s1
inactive: [1] > 100 µM | [2] > 100 µM | [3] > 100 µM | [4] > 100 µM | [6] > 100 µM | [7] > 100 µM | [8] > 100 µM | [9] > 100 µM | [10] > 100 µM | [11] > 100 µM | [12] > 100 µM | [13] > 100 µM | [14] > 100 µM | [15] > 100 µM | [16] > 100 µM | [17] > 100 µM | [18] > 100 µM | [19] 40.7 µM | [20] > 100 µM

O=[N+]([O-])c1ccc(N2CCC(CCCC3CCN(c4ccc([N+](=O)[O-])cc4[N+](=O)[O-])CC3)CC2)c([N+](=O)[O-])c1
inactive: [1] 16.1 µM | [2] 20 µM | [3] 20.7 µM | [4] 18 µM | [5] 11.1 µM | [6] 25.6 µM | [7] 19.9 µM | [8] 16.4 µM | [9] 18.2 µM | [10] 12.9 µM | [11] 17 µM | [12] 11 µM | [13] 14.2 µM | [14] 18.5 µM | [15] 14.5 µM | [16] 16.1 µM | [17] 15.1 µM | [18] 8.11 µM | [19] 22.3 µM | [20] 34.8 µM

COc1cc(OCc2ccc3nc(OC)c(OC)nc3c2)cc(OC)c1OC
inactive: [1] > 10 µM | [2] > 10 µM | [3] > 10 µM | [4] > 10 µM | [5] > 10 µM | [6] > 10 µM | [7] > 10 µM | [8] > 10 µM | [9] > 10 µM | [10] > 8 µM | [11] > 10 µM | [12] 7.18 µM | [13] > 10 µM | [14] > 10 µM | [15] > 10 µM | [16] > 10 µM | [17] > 10 µM | [18] > 10 µM | [19] > 10 µM | [20] > 10 µM
